One molecule from patent US8071763B2, “Methods for treatment of nocturia” (Daiichi Sankyo Company, Limited, priority 2002, dated 2011) can be followed below.

The test system of this assay is nocturia. In words: Single BPH patient taking a loxoprofen sodium tablet before sleeping. Particulars: one patient treated for BPH; 60-mg tablet before sleeping. The assay is classed as in vivo, human. How it is done: Based on the experience, the inventor conducted a non-randomized trial treatment with loxoprofen, a short-acting nonsteroidal anti-inflammatory drug (NSAID) prodrug usually prescribed at a dosage of 60 mg t.i.d. for the management of pain, in patients bothered by nocturia. […] The invention was achieved on the basis of these findings.

Take `CC(C(=O)O)c1ccc(CC2CCCC2=O)cc1` (stereo not shown) [loxoprofen, loxoprofen sodium]: the “Nocturia, voids/night” value is given as “decreased from a usual of four voids to one void/night”.
